Assay results from article PMC6089848 (Acta Pharmaceutica Sinica. B, 2018).
Counter-ions that a name gives are not always drawn.

Columns and labels:
[1] = system: pseudotyped EBOV virus (pHIV-EBOVGP-Fluc); format: cell-based, Ebola virus (EBOV); details: for IC50: read-out: Anti-EBOV IC50
[2] = system: pseudotyped Vesicular Stomatitis Virus (pHIV-VSVGP-Fluc); format: cell-based, Vesicular Stomatitis Virus (VSV); details: read-out: Anti-VSV IC50
[3] = system: human embryonic kidney (HEK) 293 T cells
pHIV-MARVGP-Fluc virus = system: pHIV-MARVGP-Fluc virus; design: species or system BALB/c mice; details: mouse, ip
in vitro = details: human

COC(=O)CCCC1C2CCCN3CCCC(CN1Cc1ccc(Cl)c(Cl)c1)C23.Cl.Cl (stereo not drawn) [4a, methyl 12N-3′,4′-dichlorobenzyl sophoridinate dihydrochloride]
SI [1]: 8.28 | IC50 [1]: 2.68 µM | IC50 [2]: 7.52 µM | CC50 [3]: 22.2 µM

COC(=O)CCC[C@@H]1[C@H]2CCCN3CCC[C@H](CN1C(=O)c1ccc(Cl)cc1)[C@@H]23 [4b, Methyl 12N-p-chlorobenzoyl sophoridinate]
SI [1]: 5.12 | IC50 [1]: 39.1 µM | IC50 [2]: > 200 µM | CC50 [3]: 200 µM

COC(=O)CCCC1C2CCCN3CCCC(CN1S(=O)(=O)c1ccc(Cl)cc1)C23 (stereo not drawn) [4c, Methyl 12N-p-chlorobenzenesulfonyl sophoridinate]
SI [1]: >7.59 | IC50 [1]: 2.9 µM | IC50 [2]: > 22 µM | CC50 [3]: > 22 µM

O=C(O)CCCC1C2CCCN3CCCC(CN1C(=O)c1ccc(Cl)cc1)C23 (stereo not drawn) [5b, 12N-p-Chlorobenzoyl sophoridinic acid]
IC50 [1]: > 200 µM | IC50 [2]: > 200 µM | CC50 [3]: > 200 µM

O=C(O)CCCC1C2CCCN3CCCC(CN1S(=O)(=O)c1ccc(Cl)cc1)C23 (stereo not drawn) [5c, 12N-p-Chlorobenzenesulfonyl sophoridinic acid]
SI [1]: 17.5 | IC50 [1]: 11.4 µM | IC50 [2]: > 200 µM

COC(=O)CCCC1C2CCCN3CCCC(CN1Cc1ccc(Cl)cc1)C23.Cl.Cl (stereo not drawn) [7a, Methyl 12N-p-chlorobenzyl matrinate dihydrochloride]
SI [1]: 7.87 | IC50 [1]: 25.4 µM | IC50 [2]: 188 µM | CC50 [3]: 200 µM

O=C(O)CCC[C@@H]1[C@H]2CCCN3CCC[C@@H](CN1Cc1ccc(Cl)cc1)[C@@H]23 [8a, 12N-p-Chlorobenzyl matrinic acid dihydrochloride]
IC50 [1]: > 200 µM | IC50 [2]: > 200 µM | CC50 [3]: 200 µM

COC(=O)CC1C2CCCN3CCCC(CN1S(=O)(=O)c1ccc(Cl)cc1)C23.Cl (stereo not drawn) [10c, Methyl 12N-p-chlorobenzesulfonyl matrinic acetate hydrochloride]
SI [1]: >7.46 | IC50 [1]: 26.8 µM | IC50 [2]: > 200 µM | CC50 [3]: > 200 µM

COC(=O)CC1C2CCCN3CCCC(CN1Cc1ccc(Cl)c(Cl)c1)C23.Cl.Cl (stereo not drawn) [10d, Methyl 12N-3′,4′-dichlorobenzyl matrinic acetate dihydrochloride]
SI [1]: 15.3 | IC50 [1]: 10 µM | IC50 [2]: 123 µM | CC50 [3]: 153 µM

O=C(O)CC1C2CCCN3CCCC(CN1Cc1ccc(Cl)cc1)C23 (stereo not drawn) [11a, 12N-p-Chlorobenzyl matrinic acetic acid]
IC50 [1]: > 200 µM | IC50 [2]: > 200 µM | CC50 [3]: > 200 µM

O=C(O)CC1C2CCCN3CCCC(CN1C(=O)c1ccc(Cl)cc1)C23 (stereo not drawn) [11b, 12N-p-Chlorobenzoyl matrinic acetic acid]
IC50 [1]: > 200 µM | IC50 [2]: > 200 µM | CC50 [3]: > 200 µM

O=C(O)CC1C2CCCN3CCCC(CN1CCCc1cc(Cl)cc(Cl)c1)C23 (stereo not drawn) [15f, 12N-3′,5′-Dichlorohydrocinnamyl matrinic acetic acid]
CC50 [3]: 83.3 µM

CN[C@H]1CC[C@@H](c2ccc(Cl)c(Cl)c2)c2ccccc21 [Sertraline, sertraline]
reduction (bioluminescence), in vivo anti-MARV (pHIV-MARVGP-Fluc virus): no activity at all | CC50 (in vitro): 29.2 µM
